System: anesthetized rats
Experiment: Blood pressure and left ventricular function of anesthetized rats
Assay type: in vivo, rat
Set-up: contractive pressure, change ratio: unit not given here
Conditions: for heart rate, change ratio / left intraventricular pressure / left intraventricular pressure, change ratio / mean arterial pressure / mean arterial pressure, change ratio / change-rate of left intraventricular pressure MAX / change-rate of left intraventricular pressure MAX, change ratio / change-rate of left intraventricular pressure, -MAX / change-rate of left intraventricular pressure, -MAX, change ratio / contractive pressure / contractive pressure, change ratio / diastolic pressure / diastolic pressure, change ratio / heart rate: 18 mg/kg duodenal
Experimental: All data were input into PowerLab/8Sp data acquisition and processing system via RM-6000 multi-channel polygraph, and recorded, analyzed and processed by PowerLab/8Sp.
The abdomen was opened 1.5 cm below xiphoid bone to isolate duodenum, a small incision was formed on the duodenum away from blood vessels by ophthalmic scissors, a catheter was inserted and the incision was fixed by suture for administration. After the end of operation and a further waiting period of 30 min, normal data were recorded once the indexes to be monitored were stable.
Test drugs were duodenally administered via the catheter, and the indexes were monitored 5, 15, 30, 60, 90 and 120 min after the administration. The change ratios of the indexes were calculated in accordance with the following formula, and were used for statistic analysis among groups.

[1] = 18 mg/kg, significant at 15, 30, 60, 90 and 120 min

CC1(C)C2CCC1(C)C(OC(=O)C(O)Cc1ccc(O)c(O)c1)C2 (stereo not drawn) [bornyl salvianate ester, bornyl β-(3,4-dihydroxylphenyl)-α-hydroxylpropionate ester]
heart rate, change ratio (15 min after administration): −0.07 ± 9.93
left intraventricular pressure (15 min after administration): 126.28 ± 18.51 mmHg
left intraventricular pressure, change ratio (15 min after administration): −4.15 ± 8.95
mean arterial pressure (15 min after administration): 86.21 ± 18.29 mmHg
mean arterial pressure, change ratio (15 min after administration): −5.52 ± 14.99
change-rate of left intraventricular pressure MAX (30 min after administration): 5186.9 ± 1177.3 mmHg/s
change-rate of left intraventricular pressure MAX, change ratio (30 min after administration): −8.9 ± 11.5
change-rate of left intraventricular pressure, -MAX (30 min after administration): −3923.8 ± 879.8 mm/Hg/s
change-rate of left intraventricular pressure, -MAX, change ratio (30 min after administration): −3.9 ± 8.2
contractive pressure (30 min after administration): 117.76 ± 22.90 mmHg
contractive pressure, change ratio (30 min after administration): −7.74 ± 12.22
diastolic pressure (30 min after administration): 66.68 ± 11.95 mmHg
diastolic pressure, change ratio (30 min after administration): −7.68 ± 16.90
heart rate (30 min after administration): 348.07 ± 39.21 beat/min
heart rate, change ratio (30 min after administration): −2.01 ± 12.45
left intraventricular pressure (30 min after administration): 124.81 ± 18.94 mmHg
left intraventricular pressure, change ratio (30 min after administration): −5.46 ± 7.09
mean arterial pressure (30 min after administration): 83.71 ± 15.31 mmHg
mean arterial pressure, change ratio (30 min after administration): −7.79 ± 14.45
change-rate of left intraventricular pressure MAX (60 min after administration): 4905.3 ± 1047.7 mmHg/s
change-rate of left intraventricular pressure MAX, change ratio (60 min after administration): −12.4 ± 18.7
change-rate of left intraventricular pressure, -MAX (60 min after administration): −3744.3 ± 851.5 mm/Hg/s
change-rate of left intraventricular pressure, -MAX, change ratio (60 min after administration): −7.9 ± 14.0
contractive pressure (60 min after administration): 106.97 ± 32.22 mmHg
contractive pressure, change ratio (60 min after administration): −16.34 ± 19.90
diastolic pressure (60 min after administration): 60.98 ± 16.13 mmHg
diastolic pressure, change ratio (60 min after administration): −15.66 ± 21.14
heart rate (60 min after administration): 357.22 ± 47.10 beat/min
heart rate, change ratio (60 min after administration): 0.39 ± 13.05
left intraventricular pressure (60 min after administration): 120.67 ± 23.43 mmHg
left intraventricular pressure, change ratio (60 min after administration): −8.71 ± 11.64
mean arterial pressure (60 min after administration): 76.31 ± 21.36 mmHg
mean arterial pressure, change ratio (60 min after administration): −16.01 ± 20.44
change-rate of left intraventricular pressure MAX (90 min after administration): 4676.5 ± 941.1 mmHg/s
change-rate of left intraventricular pressure MAX, change ratio (90 min after administration): −16.7 ± 15.5
change-rate of left intraventricular pressure, -MAX (90 min after administration): −3659.3 ± 806.3 mm/Hg/s
change-rate of left intraventricular pressure, -MAX, change ratio (90 min after administration): −9.2 ± 16.9
contractive pressure (90 min after administration): 104.23 ± 32.16 mmHg
contractive pressure, change ratio (90 min after administration): −18.68 ± 18.21
diastolic pressure (90 min after administration): 60.29 ± 15.88 mmHg
diastolic pressure, change ratio (90 min after administration): −16.74 ± 18.37
heart rate (90 min after administration): 355.33 ± 9.61 beat/min
heart rate, change ratio (90 min after administration): −0.44 ± 6.91
left intraventricular pressure (90 min after administration): 117.91 ± 22.68 mmHg
left intraventricular pressure, change ratio (90 min after administration): −10.81 ± 11.60
mean arterial pressure (90 min after administration): 74.94 ± 21.07 mmHg
mean arterial pressure, change ratio (90 min after administration): −17.64 ± 18.17
change-rate of left intraventricular pressure MAX (120 min after administration): 5012.6 ± 777.5 mmHg/s
change-rate of left intraventricular pressure MAX, change ratio (120 min after administration): −10.9 ± 12.4
change-rate of left intraventricular pressure, -MAX (120 min after administration): −3692.1 ± 863.3 mm/Hg/s
change-rate of left intraventricular pressure, -MAX, change ratio (120 min after administration): −8.8 ± 16.9
contractive pressure (120 min after administration): 113.34 ± 24.47 mmHg
contractive pressure, change ratio (120 min after administration): −10.88 ± 16.04
diastolic pressure (120 min after administration): 61.54 ± 13.73 mmHg
diastolic pressure, change ratio (120 min after administration): −14.64 ± 19.58
heart rate (120 min after administration): 357.68 ± 53.26 beat/min
heart rate, change ratio (120 min after administration): 0.28 ± 12.04
left intraventricular pressure (120 min after administration): 119.85 ± 22.26 mmHg
left intraventricular pressure, change ratio (120 min after administration): −9.13 ± 13.16
mean arterial pressure (120 min after administration): 78.81 ± 17.04 mmHg
mean arterial pressure, change ratio (120 min after administration): −12.96 ± 17.66
change-rate of left intraventricular pressure MAX (before administration): 5695.0 ± 1086.8 mmHg/s
change-rate of left intraventricular pressure, -MAX (before administration): −4092.0 ± 905.4 mm/Hg/s
contractive pressure (before administration): 128.25 ± 23.86 mmHg
diastolic pressure (before administration): 73.04 ± 11.87 mmHg
heart rate (before administration): 357.28 ± 36.29 beat/min
left intraventricular pressure (before administration): 131.93 ± 16.79 mmHg
mean arterial pressure (before administration): 91.44 ± 15.44 mmHg
dp/dt (in words) [1]: significantly decreased
left intraventricular pressure (in words) [1]: significantly decreased
mean arterial pressure, systolic pressure and diastolic pressure (in words) (18 mg/kg, significant at 15, 60, 90 and 120 min): significantly decreased
